Measurements reported in publication PMC6952399, “Structures of lipoprotein signal peptidase II from Staphylococcus aureus complexed with antibiotics globomycin and myxovirescin” (Nature Communications, 2020).
Several values for one entry are separate records, joined by “and”; a condition that tells them apart may be missing. Equal entries are not always repeated.

Target: T1, LspPae (lipoprotein signal peptidase II from Pseudomonas aeruginosa) (Pseudomonas aeruginosa, UniProt Q9HVM5)
T1 construct: made in house
T1 sequence (Q9HVM5 1-169): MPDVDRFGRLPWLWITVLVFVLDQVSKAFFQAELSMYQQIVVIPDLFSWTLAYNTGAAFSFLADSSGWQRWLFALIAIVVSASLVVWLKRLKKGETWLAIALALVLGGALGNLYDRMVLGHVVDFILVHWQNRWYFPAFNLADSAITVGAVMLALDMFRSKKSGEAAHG
Experiment: FRET lipopeptide peptidase assay, LspPae
Type: biochemical
Conditions: for Fluorescence (RFU): FRET substrate + LspA + Globomycin; for Rate (RFU/min) / Normalised rate (Vi/V0): replicates 1 and 2; for Ki: estimated Ki’ (apparent inhibition constant)
Protocol: FRET activity assays. A FRET based assay was developed using a labelled lipopeptide substrate (Supplementary Methods, Supplementary Fig. 3b) to directly monitor the protease activity of LspA. The optimised LspMrs assay buffer included 100 mM Tris/HCl pH 7.8, 150 mM NaCl and 0.09%(w/v) DDM. The corresponding optimized buffer for LspPae included 100 mM MES/NaOH pH 5.6, 150 mM NaCl and 0.05%(w/v) LMNG. All assays were performed at 37 °C.
Reaction mixtures were prepared by vortexing (Clifton, cyclone CM-1) for 2 s and incubated at 37 °C, 800 rpm for 10 to 30 min. […] For dose-response assays, the final DMSO concentration in all reactions was 10%(v/v). Reaction mixtures were pipetted into wells of a 96- (Thermo Scientific) or a 384-well plate (4titude®) and incubated for 10 min at 37 °C in a SpectraMax M3 or a SpectraMax M5e plate reader (Molecular devices) prior to starting the assay. Assays were initiated by adding enzyme to a final concentration in the range 10–300 nM. Total reaction mixture volume was 50 μL. Reactions were monitored by fluorescence (Ex/Em, 320 nm/420 nm) for 30 to 60 min at 37 °C. Initial rates were calculated from the fluorescence intensity versus time progress curves (Supplementary Figs. 5 and 6). Occasionally, lag periods in the progress curves were observed (Supplementary Discussion). In such cases, initial rates were calculated after the lag period had passed (typically 1–5 min) and a steady rate had been established. Dose-response plots to determine IC50 values were generated using Prism® 5 software from GraphPad.
It was possible to convert units of fluorescence change into moles of substrate consumed or products formed because pure products of LspA action on Abz-LALAGC*SS-nY-NH2 had been synthesized and were available. These were used to create a standard curve of fluorescence versus moles of the two products in equimolar amounts and to calculate specific activity values. […]
One consequence of LspMrs having a relatively low specific activity is that, in order to get a reliable signal in activity assays, it was necessary to raise enzyme concentration. For kinetic measurements generally, it is desirable to use an enzyme concentration that is much lower than that of the substrate. In this situation, the usual assumption that added and free substrate concentrations are equal is valid. At high enzyme concentrations [E] therefore, and especially in the case of tight ligand binding where the inhibition constant, Ki, is small, a measured IC50 is limited to [E]/2 4–6. In such circumstances, a meaningful IC50 or Ki can only be obtained with considerable effort. With a few exceptions in the current study, this situation prevailed with both LspA orthologs where IC50 values came close to [E]/2 (Table 1 and Supplementary Table 3, Supplementary Fig. 6). […]
Inhibition of LspA from E. coli by globomycin has been described as non-competitive7. The evidence provided in support o f this conclusion included an insensitivity of IC 50 to substrate concentration and the fact that the Vmax but not the K m changed with globomycin concentration. It was of interest to determine if a similar mode of inhibition applied to LspPae and LspMrs. From published work7–9 and from FRET-based kinetics measurements reported here, we know that globomycin binds with high affinity (Supplementary Fig. 6). Tight binding means that a more in-depth analysis must be carried out in order to identify inhibition type. For such analysis, it is important to know active enzyme concentration accurately. Fortunately, it was possible to use the property of tight inhibitor binding to measure the concentration of active enzyme ( Supplementary Fig. 18a). In the case of LspPae, the estimated value and the concentration determined spectroscopically agreed remarkably well. Parenthetically we note that knowing active LspPae concentration accurately enabled a characterization of the myxovirescin sample used in this study. Myxovirescin also binds tightly to LspA (Supplementary Fig. 6). […]

[1] = Suppl. Fig. 18a, [Globomycin] 0.02 M
[2] = Suppl. Fig. 18a, [Globomycin] 0.08 M
[3] = Suppl. Fig. 18a, [Globomycin] 0.1 M
[4] = Suppl. Fig. 18a, [Globomycin] 0.12 M
[5] = Suppl. Fig. 18a, [Globomycin] 0.15 M
[6] = Suppl. Fig. 18a, [Globomycin] 0.25 M

## CCCCCC[C@H]1OC(=O)CNC(=O)[C@H]([C@H](C)O)NC(=O)[C@H](CO)NC(=O)[C@H]([C@H](C)CC)NC(=O)[C@H](CC(C)C)N(C)C(=O)[C@@H]1C [globomycin]
5-fold molar excess of antibiotic added 20 to 30 min after start of reaction
  inhibitor on-rates: fast
Time 26.5 min
  Fluorescence (RFU): 472.821 RFU
Time 27 min
  Fluorescence (RFU): 466.895 RFU
Time 27.5 min
  Fluorescence (RFU): 470.521 RFU
Time 28 min
  Fluorescence (RFU): 460.426 RFU
Time 28.5 min
  Fluorescence (RFU): 463.196 RFU
Time 29 min
  Fluorescence (RFU): 462.392 RFU
Time 29.5 min
  Fluorescence (RFU): 469.501 RFU
Time 30 min
  Fluorescence (RFU): 460.374 RFU
Time 30.5 min
  Fluorescence (RFU): 459.928 RFU
Time 31 min
  Fluorescence (RFU): 456.673 RFU
Time 31.5 min
  Fluorescence (RFU): 461.288 RFU
Time 32 min
  Fluorescence (RFU): 457.637 RFU
Time 32.5 min
  Fluorescence (RFU): 459.756 RFU
Time 33 min
  Fluorescence (RFU): 461.040 RFU
Time 33.5 min
  Fluorescence (RFU): 455.548 RFU
Time 34 min
  Fluorescence (RFU): 459.251 RFU
Time 34.5 min
  Fluorescence (RFU): 461.912 RFU
Time 35 min
  Fluorescence (RFU): 462.029 RFU
Time 35.5 min
  Fluorescence (RFU): 459.871 RFU
Time 36 min
  Fluorescence (RFU): 456.705 RFU
Time 36.5 min
  Fluorescence (RFU): 457.128 RFU
Time 37 min
  Fluorescence (RFU): 457.399 RFU
Time 37.5 min
  Fluorescence (RFU): 460.693 RFU
Time 38 min
  Fluorescence (RFU): 454.401 RFU
Time 38.5 min
  Fluorescence (RFU): 457.430 RFU
Time 39 min
  Fluorescence (RFU): 456.060 RFU
Time 39.5 min
  Fluorescence (RFU): 454.659 RFU
Time 40 min
  Fluorescence (RFU): 457.707 RFU
Time 40.5 min
  Fluorescence (RFU): 450.482 RFU
Time 41 min
  Fluorescence (RFU): 454.135 RFU
Time 41.5 min
  Fluorescence (RFU): 449.262 RFU
Time 42 min
  Fluorescence (RFU): 454.556 RFU
Time 42.5 min
  Fluorescence (RFU): 450.049 RFU
Time 43 min
  Fluorescence (RFU): 449.698 RFU
Time 43.5 min
  Fluorescence (RFU): 456.047 RFU
Time 44 min
  Fluorescence (RFU): 454.046 RFU
Time 44.5 min
  Fluorescence (RFU): 452.003 RFU
Time 45 min
  Fluorescence (RFU): 447.269 RFU
Time 45.5 min
  Fluorescence (RFU): 454.250 RFU
Time 46 min
  Fluorescence (RFU): 454.835 RFU
Time 46.5 min
  Fluorescence (RFU): 452.245 RFU
Time 47 min
  Fluorescence (RFU): 453.938 RFU
Time 47.5 min
  Fluorescence (RFU): 452.432 RFU
Time 48 min
  Fluorescence (RFU): 453.748 RFU
Time 48.5 min
  Fluorescence (RFU): 446.264 RFU
Time 49 min
  Fluorescence (RFU): 454.134 RFU
Time 49.5 min
  Fluorescence (RFU): 458.300 RFU
Time 50 min
  Fluorescence (RFU): 453.740 RFU
Time 50.5 min
  Fluorescence (RFU): 458.019 RFU
Time 51 min
  Fluorescence (RFU): 452.119 RFU
IC50, 20 nM LspPae, substrate 2.5 µM
  IC50: 5.32 nM and 7.73 nM
IC50, 20 nM LspPae, substrate 5 µM
  IC50: 6.43 nM and 11.1 nM
IC50, 20 nM LspPae, substrate 7.5 µM
  IC50: 6.63 nM and 10.1 nM
IC50, 20 nM LspPae, substrate 10 µM
  IC50: 7.18 nM and 9.58 nM
IC50, 20 nM LspPae, substrate 20 µM
  IC50: 5.81 nM and 8.79 nM
IC50, 20 nM LspPae, substrate 30 µM
  IC50: 5.73 nM and 9.79 nM
IC50, FRET, 0.1 µM enzyme, 30 µM substrate, initial rates
  IC50: 57 nM
IC50, LspPae concentration 10 nM
  IC50: 5.5 nM and 7.7 nM
IC50, LspPae concentration 20 nM
  IC50: 10.6 nM and 17.6 nM
IC50, LspPae concentration 40 nM
  IC50: 22.6 nM and 26.4 nM
IC50, LspPae concentration 60 nM
  IC50: 27.8 nM and 39 nM
IC50, LspPae concentration 80 nM
  IC50: 37.9 nM and 55.3 nM
IC50, LspPae concentration 100 nM
  IC50: 52.6 nM and 61.3 nM
LspPae + Globomycin, log [globomycin] (µM) -0.60
  Rate (RFU/min): 0.6 RFU/min and 0.7 RFU/min
LspPae + Globomycin, log [globomycin] (µM) -0.82
  Rate (RFU/min): 0.856 RFU/min and 1.1 RFU/min
LspPae + Globomycin, log [globomycin] (µM) -0.92
  Rate (RFU/min): 0.9 RFU/min and 0.95 RFU/min
LspPae + Globomycin, log [globomycin] (µM) -1.00
  Rate (RFU/min): 4.1 RFU/min and 3.2 RFU/min
LspPae + Globomycin, log [globomycin] (µM) -1.10
  Rate (RFU/min): 12.3 RFU/min and 11.9 RFU/min
LspPae + Globomycin, log [globomycin] (µM) -1.30
  Rate (RFU/min): 31.7 RFU/min and 30.1 RFU/min
LspPae + Globomycin, log [globomycin] (µM) -1.70
  Rate (RFU/min): 42.7 RFU/min
[1]
  Normalised rate (Vi/V0): 0.8723 and 0.8656
  Rate (RFU/min): 40.92 RFU/min and 41.48 RFU/min
Suppl. Fig. 18a, [Globomycin] 0.05 M
  Normalised rate (Vi/V0): 0.6284 and 0.6375
[2]
  Normalised rate (Vi/V0): 0.2526 and 0.2533
  Rate (RFU/min): 11.85 RFU/min and 12.14 RFU/min
[3]
  Normalised rate (Vi/V0): 0.07205 and 0.07513
  Rate (RFU/min): 3.38 RFU/min and 3.6 RFU/min
[4]
  Normalised rate (Vi/V0): 0.01684 and 0.01523
  Rate (RFU/min): 0.79 RFU/min and 0.73 RFU/min
[5]
  Normalised rate (Vi/V0): 0.0162 and 0.00793
  Rate (RFU/min): 0.76 RFU/min and 0.38 RFU/min
[6]
  Normalised rate (Vi/V0): 0.02132 and 0.008139
  Rate (RFU/min): 1 RFU/min and 0.39 RFU/min
Suppl. Fig. 18a
  Rate (RFU/min): 29.48 RFU/min and 30.55 RFU/min
Average IC50, 20 nM LspPae, substrate 2.5 or 5 to 30 µM
  IC50: ~10 nM
Morrison analysis, 30 µM substrate, 0.1 µM LspPae
  Ki: 0.74 ± 0.41 nM
From dependence of IC50 on enzyme concentration, IC50 = Ki’ + [E]/2
  Ki: 1.96 ± 3 nM
